Laboratory results published in article PMC12543159, “Characterization and ligand binding properties of a fatty acid- and retinol- binding protein (Hp-FAR-2) from Heligmosomoides polygyrus” (PLOS Neglected Tropical Diseases, 2025).
pKd: −log10 of the molar value.

Key:
Assay type in all cases: binding
Hp-FAR-2 [1] = target: T1, Hp-FAR-2 (Heligmosomoides polygyrus, UniProt A0A183GLK6); experiment: DAUDA displacement fluorescence competition ([…] excess, […])
T1 construct: mature Hp-FAR-2, amino acids 18–180, N-terminal 6-His-tag

Hp-FAR-2 [2] = target: T1, Hp-FAR-2; experiment: DAUDA displacement fluorescence competition ([…] and […])
Hp-FAR-2 [3] = target: T1, Hp-FAR-2; experiment: fluorescence titration of DAUDA with purified Hp-FAR-2 (blue shift)
Hp-FAR-2 [4] = target: T1, Hp-FAR-2; experiment: retinol fluorescence titration with purified Hp-FAR-2

T1 sequence (A0A183GLK6 entry or part of it): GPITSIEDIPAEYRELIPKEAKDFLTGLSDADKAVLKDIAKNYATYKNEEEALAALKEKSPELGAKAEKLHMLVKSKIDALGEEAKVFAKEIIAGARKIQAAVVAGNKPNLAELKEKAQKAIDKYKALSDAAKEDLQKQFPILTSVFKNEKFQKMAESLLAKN

Structure (SMILES) | DAUDA displacement fluorescence competition (10-fold excess, 10 μM) (Hp-FAR-2 [1]) | DAUDA displacement fluorescence competition (1:1 and 1:10) (Hp-FAR-2 [2]) | also measured
CC/C=C\C/C=C\C/C=C\C/C=C\C/C=C\CCCC(=O)O [EPA, eicosapentaenoic acid] | All fatty acids except α-linolenic acid significantly displaced DAUDA compared to DAUDA alone |  | 
CC/C=C\C/C=C\C/C=C\C/C=C\C/C=C\C/C=C\CCC(=O)O [DHA, docosahexaenoic acid] |  | Oleic acid, linoleic acid, and docosahexaenoic acid all significantly displaced DAUDA | 
CCCCC/C=C\C/C=C\CCCCCCCC(=O)O [LA, linoleic acid] |  | Oleic acid, linoleic acid, and docosahexaenoic acid all significantly displaced DAUDA | 
CCCCCCCCCCCCCCCC(=O)O [PA, palmitic acid] | All fatty acids except α-linolenic acid significantly displaced DAUDA compared to DAUDA alone |  | 
CCCCC/C=C\C/C=C\C/C=C\C/C=C\CCCC(=O)O [AA, arachidonic acid] | All fatty acids except α-linolenic acid significantly displaced DAUDA compared to DAUDA alone |  | 
CN(C)c1cccc2c(S(=O)(=O)NCCCCCCCCCCC(=O)O)cccc12 [DAUDA] |  |  | pKd (Hp-FAR-2 [3]): 5.50
CC1=C(/C=C/C(C)=C/C=C/C(C)=C/CO)C(C)(C)CCC1 [retinol] |  |  | pKd (Hp-FAR-2 [4]): 5.49
CCCCCCCC/C=C\CCCCCCCC(=O)O [OA, oleic acid] |  | Oleic acid, linoleic acid, and docosahexaenoic acid all significantly displaced DAUDA | 
